US4129737A, “Process for the preparation of an 8-alkyl-5-oxo-5,8-dihydro-pyrido(2,3-d)pyrimidine-6-carboxylic acid” (priority 1972, dated 1978)
Values after ≈ are worked out from the molar mass of the structure shown.

Tests used:
Assay in all cases: Average MIC, solid medium (nutrient agar) dilution method
Providencia 0223 = details: Providencia, 0223, 18 h, read-out: minimum inhibitory concentration, average
Staphylococcus 9144 = details: Staphylococcus, 9144, 18 h, read-out: minimum inhibitory concentration, average
Salm. typhi 0901 = assay type: cell-based; details: Salmonella enterica, 18 h, read-out: minimum inhibitory concentration, average
Staphylococcus SIM = details: 18 h, read-out: minimum inhibitory concentration, average
Pr. vulgaris 12-53 = details: Proteus vulgaris, 1253, 18 h, read-out: minimum inhibitory concentration, average
Esch. coli. 54-127 OMS = details: Escherichia coli, 18 h, read-out: minimum inhibitory concentration, average
Ps. aeruginosa A22 = details: Pseudomonas aeruginosa, A22, 18 h, read-out: minimum inhibitory concentration, average
S. enteritidis DANYZ = details: Salmonella enterica, 18 h, read-out: minimum inhibitory concentration, average
Pr. morganii A 236 = details: Morganella morganii, A236, 18 h, read-out: minimum inhibitory concentration, average
Bord. bronch. 4617 = details: 18 h, read-out: minimum inhibitory concentration, average
Pr. mirabilis Nig = details: Proteus mirabilis, 18 h, read-out: minimum inhibitory concentration, average
S. oranienburg 10-66 = details: Salmonella enterica, 1066, 18 h, read-out: minimum inhibitory concentration, average
Esch. coli. Cho = details: Escherichia coli, 18 h, read-out: minimum inhibitory concentration, average
Sh. sonnei I.P.S. = assay type: cell-based; details: Shigella sonnei, 18 h, average of five determinations, read-out: minimum inhibitory concentration, average
Arizona 6211 = details: 18 h, read-out: minimum inhibitory concentration, average
Klebs. pneumoniae 10.031 = details: Klebsiella pneumoniae, 10.031, 18 h, read-out: minimum inhibitory concentration, average
Staphylococcus 209P = details: 18 h, read-out: minimum inhibitory concentration, average
Ps. aeruginosa 72-345 = details: Pseudomonas aeruginosa, 72345, 18 h, read-out: minimum inhibitory concentration, average
Esch. coli. LRB 45 = details: Escherichia coli, 18 h, read-out: minimum inhibitory concentration, average
Esch. coli. LRB 67 = details: Escherichia coli, 18 h, read-out: minimum inhibitory concentration, average
B. subtilis 6633 = details: Bacillus subtilis, 6633, 18 h, read-out: minimum inhibitory concentration, average
Esch. coli. 95 I.S.M. = details: Escherichia coli, 18 h, read-out: minimum inhibitory concentration, average
Streptococcus A561 = details: A561, 18 h, read-out: minimum inhibitory concentration, average
Streptococcus DM19 = details: DM19, 18 h, read-out: minimum inhibitory concentration, average
Esch 111 B4 = assay type: cell-based; details: 18 h, average of five determinations, read-out: minimum inhibitory concentration, average

Row | Structure (SMILES) | MIC (Providencia 0223) [µg/mL] | MIC (Staphylococcus 9144) [µg/mL] | MIC (Salm. typhi 0901) [µg/mL] | MIC (Staphylococcus SIM) [µg/mL] | MIC (Pr. vulgaris 12-53) [µg/mL] | MIC (Esch. coli. 54-127 OMS) [µg/mL] | MIC (Ps. aeruginosa A22) [µg/mL] | MIC (S. enteritidis DANYZ) [µg/mL] | MIC (Pr. morganii A 236) [µg/mL] | MIC (Bord. bronch. 4617) [µg/mL] | MIC (Pr. mirabilis Nig) [µg/mL] | MIC (S. oranienburg 10-66) [µg/mL] | MIC (Esch. coli. Cho) [µg/mL] | MIC (Sh. sonnei I.P.S.) [µg/mL] | MIC (Arizona 6211) [µg/mL] | MIC (Klebs. pneumoniae 10.031) [µg/mL] | MIC (Staphylococcus 209P) [µg/mL] | MIC (Ps. aeruginosa 72-345) [µg/mL] | MIC (Esch. coli. LRB 45) [µg/mL] | MIC (Esch. coli. LRB 67) [µg/mL] | further results
1 | CCn1cc(C(=O)O)c(=O)c2ccc(C)nc21 [Nalidixic acid, nalidixic acid, reference compound] | 100 (≈ 431 µM) | 25 (≈ 108 µM) | 2.7 (≈ 11.6 µM) | 56.2 (≈ 242 µM) | 0.88 (≈ 3.79 µM) | 2.15 (≈ 9.26 µM) | 60 (≈ 258 µM) | 2.75 (≈ 11.8 µM) | 0.36 (≈ 1.55 µM) | 25 (≈ 108 µM) | 3.42 (≈ 14.7 µM) | 100 (≈ 431 µM) | 4.04 (≈ 17.4 µM) | 1.58 (≈ 6.8 µM) | 3.12 (≈ 13.4 µM) | 1.4 (≈ 6.03 µM) | 16.2 (≈ 69.9 µM) | 60 (≈ 258 µM) | 3.1 (≈ 13.3 µM) | 2.7 (≈ 11.6 µM) | MIC (B. subtilis 6633): 72 µg/mL (≈ 310 µM); MIC (Esch. coli. 95 I.S.M.): 21.9 µg/mL (≈ 94.2 µM); MIC (Streptococcus A561): 18.7 µg/mL (≈ 80.7 µM); MIC (Streptococcus DM19): 100 µg/mL (≈ 431 µM); MIC (Esch 111 B4): 2.34 µg/mL (≈ 10.1 µM)
2 | CCn1cc(C(=O)O)c(=O)c2cnc(N3CCCC3)nc21 [Example III, 2-Pyrrolidino-5-oxo-8-ethyl-5,8-dihydro-pyrido(2,3-d)-pyrimidine-6-carboxylic acid] | 100 (≈ 347 µM) | 4.04 (≈ 14 µM) | 23.7 (≈ 82.3 µM) | 15 (≈ 52 µM) | 5.6 (≈ 19.4 µM) | 15.6 (≈ 54.2 µM) | 100 (≈ 347 µM) | 21.9 (≈ 76 µM) | 0.56 (≈ 1.94 µM) | 80 (≈ 277 µM) | 30 (≈ 104 µM) | 100 (≈ 347 µM) | 32.5 (≈ 113 µM) | 10.6 (≈ 36.8 µM) | 27.5 (≈ 95.4 µM) | 1.2 (≈ 4.16 µM) | 3.42 (≈ 11.9 µM) | 75 (≈ 260 µM) | 15.6 (≈ 54.2 µM) | 12.5 (≈ 43.4 µM) | MIC (B. subtilis 6633): 1 µg/mL (≈ 3.47 µM); MIC (Esch. coli. 95 I.S.M.): 32.5 µg/mL (≈ 113 µM); MIC (Streptococcus A561): 2.82 µg/mL (≈ 9.78 µM); MIC (Streptococcus DM19): 100 µg/mL (≈ 347 µM); MIC (Esch 111 B4): 15.6 µg/mL (≈ 54.2 µM)
